Patent US12240844B2 (Voronoi, Inc., priority 2019, dated 2025)

Legend:
ALK (L1196M) = molecular target: T1, ALK (L1196M) (Homo sapiens, UniProt Q9UM73, L1196M); assay: scanMAX Kinase panel (DiscoverX), % control; assay type: binding; settings: <35% = active
T1 construct: purchased DiscoverX
Description: Specifically, for Examples 162, 160, 105, 217, 205, 96, 207, 184, 206, 221, 238, and 237 selected among the example compounds of the present invention, it was decided to measure enzyme (kinase) selectivity by DiscoverX, and the experiment was conducted using a panel for scanMAX™ Kinase analysis. At this time, the concentration of the drug treated with the enzyme was 1 uM in DMSO, the control percentage (% control) was determined in the same way as in Equation 1 below, and the results were shown in Table 6 below. [formula] Here, the positive control refers to a compound showing a control percentage of 0%, and the negative control is DMSO, indicating a control percentage of 100%. Also, in the enzyme selectivity of the present invention, if the control percentage for each enzyme was <35% (i.e., less than 35%), it was determined to have activity against the relevant enzyme.

LRRK2 (G2019S) = LRRK2 (G2019S) (Homo sapiens, UniProt Q5S007, G2019S); assay: LRRK2 G2019S enzyme inhibition, ADP-Glo kinase assay; assay type: biochemical; set-up: purchased SignalChem L10-12GG
Sequence of LRRK2 (G2019S) (Q5S007 970-2527 G2019S limits assumed): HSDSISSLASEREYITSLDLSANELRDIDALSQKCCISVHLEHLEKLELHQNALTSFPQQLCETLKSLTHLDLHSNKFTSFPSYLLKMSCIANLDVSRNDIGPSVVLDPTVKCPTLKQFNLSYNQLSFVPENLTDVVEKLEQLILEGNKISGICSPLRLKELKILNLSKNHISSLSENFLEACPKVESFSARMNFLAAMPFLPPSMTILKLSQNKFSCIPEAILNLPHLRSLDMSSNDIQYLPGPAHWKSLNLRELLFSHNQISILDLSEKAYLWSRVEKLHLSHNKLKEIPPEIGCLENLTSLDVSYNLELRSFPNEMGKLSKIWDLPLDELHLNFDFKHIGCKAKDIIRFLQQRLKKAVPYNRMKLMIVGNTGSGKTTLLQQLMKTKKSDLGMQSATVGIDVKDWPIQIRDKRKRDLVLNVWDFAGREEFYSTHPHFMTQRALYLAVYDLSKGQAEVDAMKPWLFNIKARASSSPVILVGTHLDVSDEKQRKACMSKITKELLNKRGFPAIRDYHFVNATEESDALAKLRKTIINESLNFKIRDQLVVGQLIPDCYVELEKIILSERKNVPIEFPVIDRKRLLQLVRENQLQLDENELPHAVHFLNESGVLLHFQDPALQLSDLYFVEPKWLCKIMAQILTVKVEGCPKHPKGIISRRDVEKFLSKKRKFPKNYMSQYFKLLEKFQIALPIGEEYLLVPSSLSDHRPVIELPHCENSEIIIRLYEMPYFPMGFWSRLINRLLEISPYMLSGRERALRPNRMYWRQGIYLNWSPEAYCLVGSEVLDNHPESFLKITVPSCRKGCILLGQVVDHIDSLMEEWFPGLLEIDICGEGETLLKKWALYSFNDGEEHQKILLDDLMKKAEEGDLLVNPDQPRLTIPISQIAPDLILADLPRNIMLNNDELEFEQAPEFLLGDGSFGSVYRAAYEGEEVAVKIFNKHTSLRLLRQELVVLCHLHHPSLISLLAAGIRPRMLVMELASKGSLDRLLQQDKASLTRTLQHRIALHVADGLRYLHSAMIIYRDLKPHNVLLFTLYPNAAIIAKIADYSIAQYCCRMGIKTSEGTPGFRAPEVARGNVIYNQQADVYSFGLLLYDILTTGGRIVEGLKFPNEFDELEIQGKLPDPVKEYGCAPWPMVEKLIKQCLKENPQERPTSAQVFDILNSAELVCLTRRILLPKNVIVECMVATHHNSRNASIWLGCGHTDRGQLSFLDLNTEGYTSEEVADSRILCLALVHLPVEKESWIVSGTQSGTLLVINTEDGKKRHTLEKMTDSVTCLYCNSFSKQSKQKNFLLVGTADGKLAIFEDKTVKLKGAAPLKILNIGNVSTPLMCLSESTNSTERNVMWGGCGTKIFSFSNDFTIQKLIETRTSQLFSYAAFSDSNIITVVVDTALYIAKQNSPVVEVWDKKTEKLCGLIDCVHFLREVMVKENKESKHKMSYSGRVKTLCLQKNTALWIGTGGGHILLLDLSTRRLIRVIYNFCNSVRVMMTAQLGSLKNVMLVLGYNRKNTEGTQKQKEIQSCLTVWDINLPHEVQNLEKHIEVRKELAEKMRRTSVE
Procedure, shortened: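 Activity read as ADP-Glo luminescence, normalized to untreated solvent control, with IC50 (nM) fitted over 12 final compound levels (top 50 μM). Reaction: 2 h, 25° C, human LRRK2 G2019S 16 ng, ATP 25 μM, substrate 0.2 μg, in Tris-HCl pH 7.4 with MgCl2, BSA and DTT.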

TTK = molecular target: T2, TTK (Homo sapiens, UniProt P33981); assay: TTK enzyme inhibition, ADP-Glo kinase assay; assay type: biochemical; set-up: purchased Signalchem T20-10G; settings: ATP 5 μM
T2 sequence (P33981 1-857): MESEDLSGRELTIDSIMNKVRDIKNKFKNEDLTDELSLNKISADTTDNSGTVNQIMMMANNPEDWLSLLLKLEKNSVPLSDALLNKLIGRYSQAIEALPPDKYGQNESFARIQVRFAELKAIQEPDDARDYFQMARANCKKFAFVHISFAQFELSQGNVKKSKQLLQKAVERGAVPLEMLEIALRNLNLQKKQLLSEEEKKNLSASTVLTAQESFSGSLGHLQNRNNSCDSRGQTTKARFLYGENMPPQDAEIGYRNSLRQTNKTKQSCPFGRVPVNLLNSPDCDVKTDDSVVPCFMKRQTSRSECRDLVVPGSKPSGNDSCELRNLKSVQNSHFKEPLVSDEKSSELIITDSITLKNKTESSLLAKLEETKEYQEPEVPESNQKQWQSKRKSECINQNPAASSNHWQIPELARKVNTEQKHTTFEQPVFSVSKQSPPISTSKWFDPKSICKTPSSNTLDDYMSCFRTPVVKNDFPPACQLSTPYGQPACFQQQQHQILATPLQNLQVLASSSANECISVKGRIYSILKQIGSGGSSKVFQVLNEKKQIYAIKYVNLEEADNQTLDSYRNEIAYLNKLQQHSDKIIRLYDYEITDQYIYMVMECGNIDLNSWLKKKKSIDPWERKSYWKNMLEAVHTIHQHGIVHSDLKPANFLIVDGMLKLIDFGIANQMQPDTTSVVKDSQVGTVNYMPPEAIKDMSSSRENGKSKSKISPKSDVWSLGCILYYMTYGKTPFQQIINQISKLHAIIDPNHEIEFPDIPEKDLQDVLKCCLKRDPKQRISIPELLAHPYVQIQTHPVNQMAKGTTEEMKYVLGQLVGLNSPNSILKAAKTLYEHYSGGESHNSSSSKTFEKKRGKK
Procedure, shortened: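 Recombinant human TTK (7.5 ng) reacted with 5 μM ATP and MBP substrate (0.2 μg) for 4 h at 25° C in Tris-HCl pH 7.4, MgCl2, BSA, DTT buffer, compound at 0.000017–1 μM. ADP formation by ADP-Glo luminescence; IC50 (nM) relative to solvent control.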

T1 sequence (Q9UM73 19-1620 L1196M): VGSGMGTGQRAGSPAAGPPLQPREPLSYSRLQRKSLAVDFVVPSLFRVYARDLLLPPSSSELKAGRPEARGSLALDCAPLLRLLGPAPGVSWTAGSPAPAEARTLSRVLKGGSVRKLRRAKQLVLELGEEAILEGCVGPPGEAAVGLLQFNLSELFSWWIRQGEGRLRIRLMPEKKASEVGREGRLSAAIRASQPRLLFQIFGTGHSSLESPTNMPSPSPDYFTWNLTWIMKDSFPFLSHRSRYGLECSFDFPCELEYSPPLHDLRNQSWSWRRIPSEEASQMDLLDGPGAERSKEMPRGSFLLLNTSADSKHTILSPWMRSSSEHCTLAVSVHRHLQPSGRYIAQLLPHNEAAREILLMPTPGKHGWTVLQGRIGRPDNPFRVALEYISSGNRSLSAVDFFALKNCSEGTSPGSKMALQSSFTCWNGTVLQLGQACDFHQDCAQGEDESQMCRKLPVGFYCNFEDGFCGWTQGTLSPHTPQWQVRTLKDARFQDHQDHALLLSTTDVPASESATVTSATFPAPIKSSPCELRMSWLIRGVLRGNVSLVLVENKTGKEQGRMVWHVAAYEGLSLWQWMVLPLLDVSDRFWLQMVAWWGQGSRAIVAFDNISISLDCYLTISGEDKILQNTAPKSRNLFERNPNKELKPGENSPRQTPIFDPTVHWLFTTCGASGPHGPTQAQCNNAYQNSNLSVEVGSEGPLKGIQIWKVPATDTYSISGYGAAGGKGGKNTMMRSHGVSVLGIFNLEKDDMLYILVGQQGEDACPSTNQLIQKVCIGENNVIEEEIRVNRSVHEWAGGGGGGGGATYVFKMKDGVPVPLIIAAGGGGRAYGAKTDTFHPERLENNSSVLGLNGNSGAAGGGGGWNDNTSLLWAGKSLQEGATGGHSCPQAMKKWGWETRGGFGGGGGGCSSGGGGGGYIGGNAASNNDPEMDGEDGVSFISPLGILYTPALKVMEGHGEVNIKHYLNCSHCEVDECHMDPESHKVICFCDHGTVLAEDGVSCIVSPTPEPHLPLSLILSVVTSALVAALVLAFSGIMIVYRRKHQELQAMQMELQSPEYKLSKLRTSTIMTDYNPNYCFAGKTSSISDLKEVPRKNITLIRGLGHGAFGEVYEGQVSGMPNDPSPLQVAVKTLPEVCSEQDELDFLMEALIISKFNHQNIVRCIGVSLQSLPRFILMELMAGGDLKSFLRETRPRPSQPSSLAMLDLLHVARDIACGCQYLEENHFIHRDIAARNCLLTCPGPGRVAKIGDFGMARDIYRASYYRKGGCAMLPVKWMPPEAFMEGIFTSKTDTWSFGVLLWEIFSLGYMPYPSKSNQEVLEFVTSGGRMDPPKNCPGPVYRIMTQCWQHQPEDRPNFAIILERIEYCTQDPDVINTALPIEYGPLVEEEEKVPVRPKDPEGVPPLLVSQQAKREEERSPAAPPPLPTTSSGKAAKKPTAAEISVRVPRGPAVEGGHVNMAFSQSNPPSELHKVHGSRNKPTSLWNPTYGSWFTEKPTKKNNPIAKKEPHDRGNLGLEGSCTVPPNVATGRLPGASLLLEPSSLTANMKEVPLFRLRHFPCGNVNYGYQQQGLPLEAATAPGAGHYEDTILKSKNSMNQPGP

| Structure (SMILES) | remaining binding at 1 µM (ALK (L1196M)) [%] | IC50 (LRRK2 (G2019S)) [nM] | IC50 (TTK) [nM] |
| --- | --- | --- | --- |
| COCCNc1cc(Nc2ccc(P3(=O)CCN(C4CC4)CC3)cc2OC)nc2[nH]cc(C(F)(F)F)c12 [Example 207, 1-cyclopropyl-4-(3-methoxy-4-((4-((2-methoxyethyl)amino)-3-(trifluoromethyl)-1H-pyrrolo[2,3-b]pyridin-6-yl)amino)phenyl)-1,4-azaphosphinane 4-oxide] | 10 | 101 to 300 | < 100 |
| O=C(c1ccc(Nc2cc(C3CC3)c3c(C(F)(F)F)c[nH]c3n2)c2c1OCCO2)N1CCC(N2CCOCC2)CC1 [Example 221, (8-((4-cyclopropyl-3-(trifluoromethyl)-1H-pyrrolo[2,3-b]pyridin-6-yl)amino)-2,3-dihydrobenzo [b] [1,4]dioxin-5-yl)(4-morpholinopiperidin-1-yl)methanone] | 28 | 101 to 300 | < 100 |
| O=C(c1ccc(Nc2cc(C3CC3)c3c(C(F)(F)F)c[nH]c3n2)c2c1CCO2)N1CC[C@@H](N2CCOCC2)C1 [Example 238, (R)-(7-((4-cyclopropyl-3-(trifluoromethyl)-1H-pyrrolo[2,3-b]pyridin-6-yl)amino)-2,3-dihydrobenzofuran-4-yl)(3-morpholinopyrrolidin-1-yl)methanone] | 58 | – | < 100 |
| CNc1cc(Nc2ccc(C(=O)N3CC[C@H](N4CCOCC4)C3)c3c2OCC3)nc2[nH]cc(C(F)(F)F)c12 [Example 217, (S)-(7-((4-(methylamino)-3-(trifluoromethyl)-1H-pyrrolo[2,3-b]pyridin-6-yl)amino)-2,3-dihydrobenzofuran-4-yl)(3-morpholinopyrrolidin-1-yl)methanone] | 18 | – | < 100 |
| COc1cc(S(=O)(=O)N2CCOCC2)ccc1Nc1cc(C2CC2)c2c(C#N)c[nH]c2n1 [Example 227, 4-cyclopropyl-6-((2-methoxy-4-(morpholinosulfonyl)phenyl)amino)-1H-pyrrolo[2,3-b]pyridine-3-carbonitrile] | – | 101 to 300 | < 100 |
| O=C(c1ccc(Nc2cc(C3CC3)c3c(C(F)(F)F)c[nH]c3n2)c2c1OCCO2)N1CCOCC1 [Example 220, (8-((4-cyclopropyl-3-(trifluoromethyl)-1H-pyrrolo[2,3-b]pyridin-6-yl)amino)-2,3-dihydrobenzo[b] [1,4]dioxin-5-yl)(morpholino) methanone] | – | 301 to 1000 | < 100 |
| CCNc1cc(Nc2ccc(P3(=O)CCN(C4CC4)CC3)cc2OC)nc2[nH]cc(C(F)(F)F)c12 [Example 206, 1-cyclopropyl-4-(4-((4-(ethylamino)-3-(trifluoromethyl)-1H-pyrrolo[2,3-b]pyridin-6-yl)amino)-3-methoxyphenyl)-1,4-azaphosphinane 4-oxide] | 23 | – | – |
| COc1cc(S(=O)(=O)N2CCOCC2)ccc1Nc1cc(C2CC2)c2c(C(F)(F)F)c[nH]c2n1 [Example 222, 4-cyclopropyl-N-(2-methoxy-4-(morpholinosulfonyl)phenyl)-3-(trifluoromethyl)-1H-pyrrolo[2,3-b]pyridin-6-amine] | – | 301 to 1000 | < 100 |
| O=C(c1ccc(Nc2cc(C3CC3)c3c(C(F)(F)F)c[nH]c3n2)c2c1CCO2)N1CCOCC1 [Example 91, (7-((4-cyclopropyl-3-(trifluoromethyl)-1H-pyrrolo[2,3-b]pyridin-6-yl)amino)-2,3-dihydrobenzofuran-4-yl)(morpholino) methanone] | – | 301 to 1000 | 301 to 1000 |
| CNc1cc(Nc2ccc(C(=O)N3CCC(N4CCOCC4)CC3)c3c2OCCO3)nc2[nH]cc(C(F)(F)F)c12 [Example 160, (8-((4-(methylamino)-3-(trifluoromethyl)-1H-pyrrolo[2,3-b]pyridin-6-yl)amino)-2,3-dihydrobenzo [b] [1,4]dioxin-5-yl)(4-morpholinopiperidin-1-yl)methanone] | 1.3 | < 100 | – |
| O=C(c1ccc(Nc2cc(C3CC3)c3c(C(F)(F)F)c[nH]c3n2)c2c1CCO2)N1CC[C@H](N2CCOCC2)C1 [Example 237, (S)-(7-((4-cyclopropyl-3-(trifluoromethyl)-1H-pyrrolo[2,3-b]pyridin-6-yl)amino)-2,3-dihydrobenzofuran-4-yl)(3-morpholinopyrrolidin-1-yl)methanone] | 15 | – | 101 to 300 |
| CCNc1cc(Nc2ccc(C(=O)N3CCC(N4CCOCC4)CC3)c3c2OCC3)nc2[nH]cc(C(F)(F)F)c12 [Example 90, (7-((4-(ethylamino)-3-(trifluoromethyl)-1H-pyrrolo[2,3-b]pyridin-6-yl)amino)-2,3-dihydrobenzofuran-4-yl)(4-morpholinopiperidin-1-yl)methanone] | – | < 100 | < 100 |
| CCNc1cc(Nc2ccc(P3(=O)CCN(C(C)=O)CC3)cc2OC)nc2[nH]cc(C(F)(F)F)c12 [Example 42, 1-(4-(4-((4-(ethylamino)-3-(trifluoromethyl)-1H-pyrrolo[2,3-b]pyridin-6-yl)amino)-3-methoxyphenyl)-4-oxido-1,4-azaphosphinan-1-yl)ethan-1-one] | – | 101 to 300 | < 100 |

The next lines start with the values.

| remaining binding at 1 µM (ALK (L1196M)) [%] | IC50 (LRRK2 (G2019S)) [nM] | IC50 (TTK) [nM] | Structure (SMILES) |
| --- | --- | --- | --- |
| 28 | < 100 | – | CCNc1cc(Nc2ccc(S(=O)(=O)N3CCC(N4CCOCC4)CC3)c3c2OCCO3)nc2[nH]cc(C(F)(F)F)c12 [Example 96, N^4-ethyl-N^6-(8-((4-morpholonopiperidin-1-yl)sulfonyl)-2,3-dihydrobenzo [b] [1,4]dioxin-5-yl)-3-(trifluoromethyl)-1H-pyrrolo[2,3-b]pyridine-4,6-diamine] |
| 1.3 | < 100 | – | CCCNc1cc(Nc2ccc(C(=O)N3CCC(N4CCOCC4)CC3)c3c2OCCO3)nc2[nH]cc(C(F)(F)F)c12 [Example 162, (4-morpholinopiperidin-1-yl)(8-((4-(propylamino)-3-(trifluoromethyl)-1H-pyrrolo[2,3-b]pyridin-6-yl)amino)-2,3-dihydrobenzo[b] [1,4]dioxin-5-yl)methanone] |
| 2.3 | < 100 | < 100 | CCNc1cc(Nc2ccc(C(=O)N3CCC(N4C[C@@H]5C[C@H]4CO5)CC3)c3c2OCC3)nc2[nH]cc(C(F)(F)F)c12 [Example 105, (4-((1S,4S)-2-oxa-5-azabicyclo[2.2.1]heptan-5-yl)piperidin-1-yl)(7-((4-(ethylamino)-3-(trifluoromethyl)-1H-pyrrolo[2,3-b]pyridin-6-yl)amino)-2,3-dihydrobenzofuran-4-yl)methanone] |
| 23 | < 100 | < 100 | CNc1cc(Nc2ccc(S(=O)(=O)N3CCC(N4CCOCC4)CC3)cc2OC)nc2[nH]cc(C(F)(F)F)c12 [Example 184, N^6-(2-methoxy-4-((4-morpholinopiperidin-1-yl)sulfonyl)phenyl)-N^4-methyl-3-(trifluoromethyl)-1H-pyrrolo[2,3-b]pyridine-4,6-diamine] |
| – | < 100 | 101 to 300 | CNc1cc(Nc2ccc(S(=O)(=O)N3CCC(N4CCOCC4)CC3)c3c2OCCO3)nc2[nH]cc(C(F)(F)F)c12 [Example 233, N^4-methyl-N^6-(8-((4-morpholinopiperidin-1-yl)sulfonyl)-2,3-dihydrobenzo [b] [1,4]dioxin-5-yl)-3-(trifluoromethyl)-1H-pyrrolo[2,3-b]pyridine-4,6-diamine] |
| – | < 100 | 301 to 1000 | O=C(c1ccc(Nc2cc(C3CC3)c3c(C(F)(F)F)c[nH]c3n2)c2c1CCO2)N1CCC(N2CCOCC2)CC1 [Example 93, (7-((4-cyclopropyl-3-(trifluoromethyl)-1H-pyrrolo[2,3-b]pyridin-6-yl)amino)-2,3-dihydrobenzofuran-4-yl)(4-morpholinopiperidin-1-yl)mthanone] |
